Data from US20220000941A1, “MINERAL ELEMENTS COMPRISING HAFNIA ALVEI COMPOSITIONS” (TARGEDYS, priority 2019, published 2022).

Tests used:
Hafnia alvei 4597 [1] = test: Turbidity of Hafnia alvei culture media by optical densitometry (OD at 640 nm); type: cell-based; settings: mineral source in LB medium, monitored during 48 hours
Experimental: The concentration of the minerals were based on their estimated concentration in […] (typical glass of water). However, in view of observing the Hafnia alvei strain development, the zinc and chrome sources were solubilized in a Luria Browth medium (LB). The composition of LB is as follows: Tryptone 10 g/L, yeast extract 5 g/L (Biokar Diagnostic®) and NaCl 0.5 g/L (Fluka®).
Hafnia alvei 4597 was incubated with Test medial-6 of example 1 and the turbidity of the culture media was monitored during 48 hours by means of optical densitometry (OD at 640 nm).
(§1) The development of Hafnia alvei in this new medium was monitored by optical densitometry and flow cytometry. LB medium with no added zinc or chrome was used as a control.

Hafnia alvei 4597 [2] = test: Flow cytometry of cell integrity (propidium iodide and Syto 24), intact cells; type: cell-based; settings: zinc comprising media, flow cytometry at 24 h
Excerpt: Samples of the culture media 1-6 were further assessed for the cell integrity by means of flow cytometry using as markers propidium iodide and Syto® 24. The flow cytometry measured the number of intact cells opposed to the population of cells whose cellular membrane integrity had been compromised.
as §1

SMILES	turbidity of the culture medium (OD at 640 nm) compared to control (LB) medium (Hafnia alvei 4597 [1])	development inhibition compared to the control medium (Hafnia alvei 4597 [2])
O=C([O-])c1ccccn1.O=C([O-])c1ccccn1.O=C([O-])c1ccccn1.[Cr+3] [Chromium picolinate, chromium (3+); pyridine-2-carboxylate]	same turbidity as the control	
NCC(=O)[O-].NCC(=O)[O-].[Zn+2] [Zinc bisglycinate, zinc; 2-aminoacetate]		no significant development inhibition
